Here are results for three molecules from patent publication US20030149028A1, “Pesticidal compositions” (priority 2001, published 2003).

What all share (assay type): in vivo
The test system of series [1] is black bean aphids (Aphis fabae). As to the kind of experiment: Method B: Aphis fabae Screen. Conditions: concentration of 500 ppm or less; added to water of field bean (Vicia faba) plants, effect on aphids after 3 and 6 days at 25° C. On the procedure:
Method B: Aphis fabae Screen Germinated field bean seeds (Vicia faba) with roots were transferred into bottles filled with tap water and an aqueous solution of the formulated preparation to be examined (4 ml) was added. The plants were then infested with approximately 100 black bean aphids (Aphis fabae) and stored in a controlled-environment cabinet at 25° C. After 3 and 6 days storage, the effect of the preparation on the aphids was determined.

Series [2] deals with rice leafhopper species Nephoteftix cincticeps. In words: Method D: Nephotettix cinciceps Screen. To be noted: concentration of 500 ppm or less; rice plants dipped, L3 larvae, after 6 days at 25° C. Here is the method:
Method D: Nephotettix cinciceps Screen
The leaves of 12 rice plants having a stem length of 8 cm were dipped for 5 seconds into an aqueous solution of the formulated preparation to be examined. After the solution had run off, the rice plants treated in this manner were placed in a Petri dish and populated with about 20 larvae (L3 stage) of the rice leafhopper species Nephoteftix cincticeps. The Petri dish was closed and then stored in a climate chamber (16 hours of light/day, 25° C., 40-60% relative atmospheric humidity). After 6 days storage, the mortality among the leafhopper larvae was determined.

In series [3] the test system is tick larvae (Rhipicephalus sanguineus). In words: Method E: Rhipicephalus sanguineus Screen. Conditions: concentration of 500 ppm or less, treated filter paper, after 24 hours at 25° C. Here is the method: Method E: Rhipicephalus sanguineus Screen A solution of the formulated preparation to be examined was dropped onto filter paper. After solvent evaporation the filter paper was infested with 20-30 tick larvae (Rhipicephalus sanguineus). After 24 hours storage at 25° C. the efficacy of the preparation was determined.

As for `CC1=NN(c2c(Cl)cc(C(F)(F)F)cc2Cl)C(=O)C12CC=C(c1ccccc1)C[S+]2[O-]` (stereo not drawn) [Compound 12, [1-(2,6-dichloro-4-trifluoromethylphenyl)-3-methylpyrazolin-5-one]-4-spiro-2′-(5′-phenyl-1′-oxo-2′H-3′,6′-dihydrothiane)], the control result in series [1] is “at least 50%”.

Consider `CC1=NN(c2c(Cl)cc(C(F)(F)F)cc2Cl)C(=O)C12SC1C=CC2C1` (stereo not drawn) [Compound 8, [1-(2,6-dichloro-4-trifluoromethylphenyl)-3-methylpyrazolin-5-one]-4-spiro-3′-(2′-thiabicyclo[2.2.1]hept-5′-ene)], for which the “control (mortality among the leafhopper larvae)” value in series [2] is on record as “at least 50%”.

In the case of `CC1=C(C)CC2(SC1)C(=O)N(c1c(Cl)cc(C(F)(F)F)cc1Cl)N=C2C#N` (stereo not drawn) [Compound 9, [1-(2,6-dichloro-4-trifluoromethylphenyl)-3-cyanopyrazolin-5-one]-4-spiro-2′-(4′,5′-dimethyl-2′H-3′,6′-dihydrothiane)], the “control (efficacy)” value in series [3] is reported as “at least 50%”.
